# In US9422293B2 (priority 2006, dated 2016):
# pIC50: −log10 of the molar value. Structures can show the parent of a compound that is named as a salt.
# Target: rat TRPV1 (Rattus norvegicus (Rat), UniProt O35433)
# Conditions: read-out: Rat IC50
# rat TRPV1, sequence (O35433 whole entry): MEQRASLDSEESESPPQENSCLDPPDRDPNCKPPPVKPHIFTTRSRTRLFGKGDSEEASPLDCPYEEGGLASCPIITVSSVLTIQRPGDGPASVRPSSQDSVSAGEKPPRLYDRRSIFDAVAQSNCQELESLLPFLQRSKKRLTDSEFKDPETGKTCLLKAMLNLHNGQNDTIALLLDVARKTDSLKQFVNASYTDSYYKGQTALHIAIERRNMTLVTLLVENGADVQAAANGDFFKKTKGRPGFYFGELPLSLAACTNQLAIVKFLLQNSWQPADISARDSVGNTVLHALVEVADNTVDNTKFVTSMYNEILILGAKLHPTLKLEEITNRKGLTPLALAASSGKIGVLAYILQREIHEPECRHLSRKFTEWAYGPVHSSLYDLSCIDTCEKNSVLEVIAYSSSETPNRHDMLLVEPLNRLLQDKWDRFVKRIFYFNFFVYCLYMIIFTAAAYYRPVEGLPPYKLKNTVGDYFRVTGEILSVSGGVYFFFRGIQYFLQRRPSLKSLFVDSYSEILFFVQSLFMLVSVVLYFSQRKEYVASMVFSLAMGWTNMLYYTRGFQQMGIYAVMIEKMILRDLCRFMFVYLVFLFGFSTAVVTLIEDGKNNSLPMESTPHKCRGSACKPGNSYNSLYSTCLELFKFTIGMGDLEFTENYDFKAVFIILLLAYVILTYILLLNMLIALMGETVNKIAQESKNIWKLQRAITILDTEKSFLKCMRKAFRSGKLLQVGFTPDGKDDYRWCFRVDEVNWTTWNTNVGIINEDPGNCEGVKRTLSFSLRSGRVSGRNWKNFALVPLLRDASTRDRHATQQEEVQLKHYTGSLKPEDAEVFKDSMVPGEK
row,Compound,pIC50
1,"CSc1nc2c(c(Nc3ccc4c(c3)N(C)CCC4)n1)CCN(c1ncccc1C(F)(F)F)CC2 [Example 205, 2-(Methylsulfanyl)-N-(1-methyl-1,2,3,4-tetrahydroquinolin-7-yl)-7-[3-(trifluoromethyl)pyridin-2-yl]-6,7,8,9-tetrahydro-5H-pyrimido[4,5-d]azepin-4-amine]",5.64
2,"COCc1nc2c(c(Nc3ccc(C(F)(F)F)nc3)n1)CCN(c1ncccc1C(F)(F)F)CC2 [Example 346, 2-[(Methyloxy)methyl]-7-[3-(trifluoromethyl)pyridin-2-yl]-N-[6-(trifluoromethyl)pyridin-3-yl]-6,7,8,9-tetrahydro-5H-pyrimido[4,5-d]azepin-4-amine trifluoroacetic acid salt]",< 5.18
3,"CC(C)c1nc2c(c(Nc3ccc(C(C)(C)C)cc3)n1)CCN(c1ncccc1C(F)(F)F)CC2 [Example 8, (4-tert-Butyl-phenyl)-[2-isopropyl-7-(3-trifluoromethyl-pyridin-2-yl)-6,7,8,9-tetrahydro-5H-pyrimido[4,5-d]azepin-4-yl]-amine]",7.60
4,"CC(C)c1nc2c(c(NCc3ccc(C(F)(F)F)nc3)n1)CCN(c1ncccc1C(F)(F)F)CC2 [Example 116, 2-(1-Methylethyl)-7-[3-(trifluoromethyl)pyridin-2-yl]-N-{[6-(trifluoromethyl)pyridin-3-yl]methyl}-6,7,8,9-tetrahydro-5H-pyrimido[4,5-d]azepin-4-amine]",5.15
5,"CS(=O)(=O)c1nc2c(c(Nc3ccc(C(F)(F)F)cc3)n1)CCN(c1ncccc1C(F)(F)F)CC2 [Example 53, [2-Methanesulfonyl-7-(3-trifluoromethyl-pyridin-2-yl)-6,7,8,9-tetrahydro-5H-pyrimido[4,5-d]azepin-4-yl]-(4-trifluoromethyl-phenyl)-amine]",< 5.17
6,"CC1CCCN(c2nc3c(c(Nc4ccc(C(F)(F)F)cc4)n2)CCN(c2ncccc2C(F)(F)F)CC3)C1 (stereo not shown) [Example 240, 2-(3-Methylpiperidin-1-yl)-N-[4-(trifluoromethyl)phenyl]-7-[3-(trifluoromethyl)pyridin-2-yl]-6,7,8,9-tetrahydro-5H-pyrimido[4,5-d]azepin-4-amine trifluoroacetic acid salt]",7.70
7,"CC(C)(O)c1ccc(Nc2nc(N3CCCCC3)nc3c2CCN(c2ncccc2C(F)(F)F)CC3)cc1 [Example 177, 2-[4-({2-Piperidin-1-yl-7-[3-(trifluoromethyl)pyridin-2-yl]-6,7,8,9-tetrahydro-5H-pyrimido[4,5-d]azepin-4-yl}amino)phenyl]propan-2-ol]",7.05
8,"COc1ccccc1CCNc1nc(C(C)C)nc2c1CCN(c1ncccc1C(F)(F)F)CC2 [Example 126, 2-(1-Methylethyl)-N-{2-[2-(methyloxy)phenyl]ethyl}-7-[3-(trifluoromethyl)pyridin-2-yl]-6,7,8,9-tetrahydro-5H-pyrimido[4,5-d]azepin-4-amine]",5.92
9,"O=S(=O)(c1ccc(Nc2nc(SC3CCCCC3)nc3c2CCN(c2ncccc2C(F)(F)F)CC3)cc1)C(F)(F)F [Example 360, 2-(Cyclohexylsulfanyl)-7-[3-(trifluoromethyl)pyridin-2-yl]-N-{4-[(trifluoromethyl)sulfonyl]phenyl}-6,7,8,9-tetrahydro-5H-pyrimido[4,5-d]azepin-4-amine]",6.60
10,"CC(Oc1nc2c(c(Nc3ccc(S(=O)(=O)C(F)(F)F)cc3)n1)CCN(c1ncccc1C(F)(F)F)CC2)C1CCCCC1 (stereo not shown) [Example 318, 2-[(1-Cyclohexylethyl)oxy]-7-[3-(trifluoromethyl)pyridin-2-yl]-N-{4-[(trifluoromethyl)sulfonyl]phenyl}-6,7,8,9-tetrahydro-5H-pyrimido[4,5-d]azepin-4-amine]",< 5.18
11,"CC(C)c1nc2c(c(Nc3ccc4c(c3)N(C)CCC4(C)C)n1)CCN(c1ncccc1C(F)(F)F)CC2 [Example 162, [2-Isopropyl-7-(3-trifluoromethyl-pyridin-2-yl)-6,7,8,9-tetrahydro-5H-pyrimido[4,5-d]azepin-4-yl]-(1,4,4-trimethyl-1,2,3,4-tetrahydro-quinolin-7-yl)-amine]",7.52
12,"FC1(F)CCN(c2nc3c(c(Nc4ccc(C(F)(F)F)cc4)n2)CCN(c2ncccc2C(F)(F)F)CC3)CC1 [Example 242, 2-(4,4-Difluoropiperidin-1-yl)-N-[4-(trifluoromethyl)phenyl]-7-[3-(trifluoromethyl)pyridin-2-yl]-6,7,8,9-tetrahydro-5H-pyrimido[4,5-d]azepin-4-amine]",7.05
13,"Cc1nc2ccccc2nc1N1CCc2nc(C(C)C)nc(Nc3ccc(C(F)(F)F)cc3)c2CC1 [Example 34, [2-Isopropyl-7-(3-methyl-quinoxalin-2-yl)-6,7,8,9-tetrahydro-5H-pyrimido-[4,5-d]azepin-4-yl]-(4-trifluoromethyl-phenyl)-amine]",6.44
14,"CC(C)c1nc2c(c(Nc3ccc(C(F)(F)F)cc3)n1)CCN(c1nc3ccccc3nc1C(F)(F)F)CC2 [Example 35, [2-Isopropyl-7-(3-trifluoromethyl-quinoxalin-2-yl)-6,7,8,9-tetrahydro-5H-pyrimido[4,5-d]azepin-4-yl]-(4-trifluoromethyl-phenyl)-amine]",5.62
15,"FC(F)(F)c1ccc(Nc2nc(-c3ccco3)nc3c2CCN(c2ncccc2C(F)(F)F)CC3)cc1 [Example 144, 2-Furan-2-yl-N-[4-(trifluoromethyl)phenyl]-7-[3-(trifluoromethyl)pyridin-2-yl]-6,7,8,9-tetrahydro-5H-pyrimido[4,5-d]azepin-4-amine]",6.62
16,"O=C1CN(c2nc3c(c(Nc4ccc(C(F)(F)F)cc4)n2)CCN(c2ncccc2C(F)(F)F)CC3)CCN1 [Example 90B, 4-[4-(4-Trifluoromethyl-phenylamino)-7-(3-trifluoromethyl-pyridin-2-yl)-6,7,8,9-tetrahydro-5H-pyrimido[4,5-d]azepin-2-yl]-piperazin-2-one trifluoroacetic acid salt]",< 5.17
17,"CC(C)(O)c1ccc(Nc2nc(N3CCOCC3)nc3c2CCN(c2ncccc2C(F)(F)F)CC3)cc1 [Example 389, 2-{4-[2-Morpholin-4-yl-7-(3-trifluoromethyl-pyridin-2-yl)-6,7,8,9-tetrahydro-5H-pyrimido[4,5-d]azepin-4-ylamino]-phenyl}-propan-2-ol]",6.49
18,"FC(F)(F)c1ccc(Nc2nc(-c3ccccc3)nc3c2CCN(c2ncccc2C(F)(F)F)CC3)cc1 [Example 7, [2-Phenyl-7-(3-trifluoromethyl-pyridin-2-yl)-6,7,8,9-tetrahydro-5H-pyrimido[4,5-d]azepin-4-yl]-(4-trifluoromethyl-phenyl)-amine]",6.85
19,"CSc1nc2c(c(Nc3ccc(C(F)(F)F)cc3)n1)CCN(c1ncccc1C(F)(F)F)CC2 [Example 52, [2-Methylsulfanyl-7-(3-trifluoromethyl-pyridin-2-yl)-6,7,8,9-tetrahydro-5H-pyrimido[4,5-d]azepin-4-yl]-(4-trifluoromethyl-phenyl)-amine]",7.28
20,"CN1CCCc2ccc(Nc3nc(OC4CCCCC4)nc4c3CCN(c3ncccc3C(F)(F)F)CC4)cc21 [Example 328, 2-(Cyclohexyloxy)-N-(1-methyl-1,2,3,4-tetrahydroquinolin-7-yl)-7-[3-(trifluoromethyl)pyridin-2-yl]-6,7,8,9-tetrahydro-5H-pyrimido[4,5-d]azepin-4-amine]",6.60
21,"CN(C)CCN(C)c1nc2c(c(Nc3ccc(C(C)(C)C)cc3)n1)CCN(c1ncccc1C(F)(F)F)CC2 [Example 254, N^2-[2-(Dimethylamino)ethyl]-N^4-[4-(1,1-dimethylethyl)phenyl]-N^2-methyl-7-[3-(trifluoromethyl)pyridin-2-yl]-6,7,8,9-tetrahydro-5H-pyrimido[4,5-d]azepine-2,4-diamine]",7.00
22,"NS(=O)(=O)c1cccnc1N1CCc2ncnc(Nc3ccc(C(F)(F)F)cc3)c2CC1 [Example 302, 2-(4-{[4-(Trifluoromethyl)phenyl]amino}-5,6,7,8,9-tetrahydro-7H-pyrimido[4,5-d]azepin-7-yl)pyridine-3-sulfonamide]",5.02
23,"CC(C)c1nc2c(c(Nc3ccc(C(F)(F)F)cc3)n1)CCN(c1ncccc1[N+](=O)[O-])CC2 [Example 88, [2-Isopropyl-7-(3-nitro-pyridin-2-yl)-6,7,8,9-tetrahydro-5H-pyrimido[4,5-d]azepin-4-yl]-(4-trifluoromethyl-phenyl)-amine]",6.02
24,"CC(C)(C)c1ccc(Nc2nc(-c3ccccn3)nc3c2CCN(c2ncccc2C(F)(F)F)CC3)cc1 [Example 171, N-[4-(1,1-Dimethylethyl)phenyl]-2-pyridin-2-yl-7-[3-(trifluoromethyl)pyridin-2-yl]-6,7,8,9-tetrahydro-5H-pyrimido[4,5-d]azepin-4-amine trifluoroacetic acid salt]",7.10
25,"CCCSc1nc2c(c(Nc3ccc(C(F)(F)F)cc3)n1)CCN(c1ncccc1C(F)(F)F)CC2 [Example 375, 2-(Propylsulfanyl)-N-[4-(trifluoromethyl)phenyl]-7-[3-(trifluoromethyl)pyridin-2-yl]-6,7,8,9-tetrahydro-5H-pyrimido[4,5-d]azepin-4-amine]",< 5.18
26,"CC(C)(C)c1ccc(Nc2nc(-c3ccoc3)nc3c2CCN(c2ncccc2C(F)(F)F)CC3)cc1 [Example 147, N-[4-(1,1-Dimethylethyl)phenyl]-2-furan-3-yl-7-[3-(trifluoromethyl)pyridin-2-yl]-6,7,8,9-tetrahydro-5H-pyrimido[4,5-d]azepin-4-amine]",6.96
27,"Cc1cc(C(F)(F)F)ccc1Nc1nc(OC(C)C2CC2)nc2c1CCN(c1ncccc1C(F)(F)F)CC2 (stereo not shown) [Example 325, 2-[(1-Cyclopropylethyl)oxy]-N-[2-methyl-4-(trifluoromethyl)phenyl]-7-[3-(trifluoromethyl)pyridin-2-yl]-6,7,8,9-tetrahydro-5H-pyrimido[4,5-d]azepin-4-amine]",6.52
28,"FC(F)(F)c1ccc(Nc2nc(N3CCCC3)nc3c2CCN(c2ncccc2C(F)(F)F)CC3)cc1 [Example 106, [2-Pyrrolidin-1-yl-7-(3-trifluoromethyl-pyridin-2-yl)-6,7,8,9-tetrahydro-5H-pyrimido[4,5-d]azepin-4-yl]-(4-trifluoromethyl-phenyl)-amine]",7.21
